Experimental data taken from patent US10308643B2, “Heterocyclic compound” (Takeda Pharmaceutical Company Limited, priority 2015, dated 2019).

Experiments:
Assay type in all cases: biochemical
[1] = molecular target: T1, HDAC6 enzyme (Homo sapiens, UniProt Q9UBN7); assay: HDAC1/6 Enzyme Inhibitory Assay (HDAC-Glo I/II Assay kit), HDAC6; conditions: 1 μM test compound; wells without enzyme = 100% inhibition; read-out: HDAC6 inhibitory rate (%) (1 μM)
T1 construct: transducing full length HDAC1 and HDAC6 genes into Sf-9 insect cells; GST; purchased SignalChem; host or cells: Sf-9 insect cells
T1 sequence (Q9UBN7 1-1215): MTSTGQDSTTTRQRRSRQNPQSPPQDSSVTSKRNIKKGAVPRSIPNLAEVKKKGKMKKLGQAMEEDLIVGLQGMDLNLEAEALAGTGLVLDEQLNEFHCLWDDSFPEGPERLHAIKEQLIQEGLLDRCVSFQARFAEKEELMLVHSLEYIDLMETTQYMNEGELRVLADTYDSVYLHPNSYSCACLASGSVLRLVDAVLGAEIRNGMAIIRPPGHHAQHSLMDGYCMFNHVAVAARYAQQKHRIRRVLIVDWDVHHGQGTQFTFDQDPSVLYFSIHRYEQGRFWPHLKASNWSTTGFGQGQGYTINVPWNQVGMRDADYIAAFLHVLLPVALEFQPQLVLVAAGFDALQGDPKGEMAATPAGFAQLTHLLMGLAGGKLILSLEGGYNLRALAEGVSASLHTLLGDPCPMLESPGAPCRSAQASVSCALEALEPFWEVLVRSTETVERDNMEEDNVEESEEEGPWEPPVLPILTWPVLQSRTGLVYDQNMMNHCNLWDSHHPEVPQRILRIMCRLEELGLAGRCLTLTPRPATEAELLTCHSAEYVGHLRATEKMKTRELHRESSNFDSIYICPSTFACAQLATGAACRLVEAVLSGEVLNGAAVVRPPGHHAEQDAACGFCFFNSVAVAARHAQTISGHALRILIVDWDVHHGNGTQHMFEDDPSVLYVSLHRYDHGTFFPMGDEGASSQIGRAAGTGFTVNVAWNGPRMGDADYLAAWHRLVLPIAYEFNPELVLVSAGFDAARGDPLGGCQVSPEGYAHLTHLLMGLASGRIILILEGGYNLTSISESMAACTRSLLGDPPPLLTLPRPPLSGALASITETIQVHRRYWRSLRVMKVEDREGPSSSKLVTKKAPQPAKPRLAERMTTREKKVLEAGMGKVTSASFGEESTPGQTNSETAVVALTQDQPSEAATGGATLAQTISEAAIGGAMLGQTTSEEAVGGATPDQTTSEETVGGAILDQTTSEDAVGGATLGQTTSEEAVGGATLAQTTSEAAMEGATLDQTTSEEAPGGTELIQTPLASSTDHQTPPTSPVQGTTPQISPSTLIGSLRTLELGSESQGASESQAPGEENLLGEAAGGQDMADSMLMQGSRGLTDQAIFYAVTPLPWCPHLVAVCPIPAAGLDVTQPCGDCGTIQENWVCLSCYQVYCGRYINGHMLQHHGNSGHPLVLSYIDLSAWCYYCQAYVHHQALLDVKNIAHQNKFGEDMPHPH
Summary of the method: (§1)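 Luminescence readout (HDAC-Glo I/II) after 20 min RT reaction of GST-purified full-length HDAC1 or HDAC6 (Sf-9 expressed) with substrate-developer; enzyme and compound preincubated 60 min RT; buffer 24 mM Tris-HCl pH 7.5, 0.6 mM glutathione, 0.01% Tween-20; no-enzyme wells = 100% inhibition.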

[2] = molecular target: T2, HDAC9 enzyme (Homo sapiens, UniProt Q9UKV0); assay: HDAC9 Enzyme Inhibitory Assay (HDAC-Glo class IIa); conditions: 1 μM test compound; wells without enzyme = 100% inhibition; read-out: HDAC9 inhibitory rate (%) (1 μM)
T2 construct: transducing full length HDAC9 gene into Sf-9 insect cells; made in house; host or cells: Sf-9 insect cells
Summary of the method: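 Luminescent HDAC-Glo class IIa readout after a 20 min room-temperature reaction; relative inhibition referenced to enzyme-free wells as 100%. Test compound first preincubated 60 min with Sf-9-expressed, Ni-NTA-purified full-length HDAC9 in pH 7.5 Tris buffer containing 135 mM NaCl, 0.6 mM glutathione and 0.01% Tween-20.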

[3] = molecular target: T3, HDAC1 enzyme (Homo sapiens, UniProt Q13547); assay: HDAC1/6 Enzyme Inhibitory Assay (HDAC-Glo I/II Assay kit), HDAC1; conditions: 1 μM test compound; wells without enzyme = 100% inhibition; read-out: HDAC1 inhibitory rate (%) (1 μM)
T3 construct: transducing full length HDAC1 and HDAC6 genes into Sf-9 insect cells; GST; purchased SignalChem; host or cells: Sf-9 insect cells
Summary of the method: as §1

T3 sequence (Q13547 whole entry): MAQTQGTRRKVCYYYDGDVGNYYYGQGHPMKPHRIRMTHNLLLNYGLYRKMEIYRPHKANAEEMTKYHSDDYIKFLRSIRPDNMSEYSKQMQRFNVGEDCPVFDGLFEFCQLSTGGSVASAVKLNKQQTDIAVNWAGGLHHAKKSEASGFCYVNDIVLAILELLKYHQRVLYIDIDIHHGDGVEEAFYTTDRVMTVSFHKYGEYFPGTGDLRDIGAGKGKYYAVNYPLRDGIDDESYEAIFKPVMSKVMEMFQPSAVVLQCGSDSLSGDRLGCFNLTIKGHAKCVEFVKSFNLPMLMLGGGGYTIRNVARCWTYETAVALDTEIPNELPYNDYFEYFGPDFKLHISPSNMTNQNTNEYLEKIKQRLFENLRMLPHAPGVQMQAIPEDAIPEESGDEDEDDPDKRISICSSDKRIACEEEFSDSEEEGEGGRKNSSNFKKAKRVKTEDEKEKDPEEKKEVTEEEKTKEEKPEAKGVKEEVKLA
T2 sequence (Q9UKV0 whole entry, species assumed): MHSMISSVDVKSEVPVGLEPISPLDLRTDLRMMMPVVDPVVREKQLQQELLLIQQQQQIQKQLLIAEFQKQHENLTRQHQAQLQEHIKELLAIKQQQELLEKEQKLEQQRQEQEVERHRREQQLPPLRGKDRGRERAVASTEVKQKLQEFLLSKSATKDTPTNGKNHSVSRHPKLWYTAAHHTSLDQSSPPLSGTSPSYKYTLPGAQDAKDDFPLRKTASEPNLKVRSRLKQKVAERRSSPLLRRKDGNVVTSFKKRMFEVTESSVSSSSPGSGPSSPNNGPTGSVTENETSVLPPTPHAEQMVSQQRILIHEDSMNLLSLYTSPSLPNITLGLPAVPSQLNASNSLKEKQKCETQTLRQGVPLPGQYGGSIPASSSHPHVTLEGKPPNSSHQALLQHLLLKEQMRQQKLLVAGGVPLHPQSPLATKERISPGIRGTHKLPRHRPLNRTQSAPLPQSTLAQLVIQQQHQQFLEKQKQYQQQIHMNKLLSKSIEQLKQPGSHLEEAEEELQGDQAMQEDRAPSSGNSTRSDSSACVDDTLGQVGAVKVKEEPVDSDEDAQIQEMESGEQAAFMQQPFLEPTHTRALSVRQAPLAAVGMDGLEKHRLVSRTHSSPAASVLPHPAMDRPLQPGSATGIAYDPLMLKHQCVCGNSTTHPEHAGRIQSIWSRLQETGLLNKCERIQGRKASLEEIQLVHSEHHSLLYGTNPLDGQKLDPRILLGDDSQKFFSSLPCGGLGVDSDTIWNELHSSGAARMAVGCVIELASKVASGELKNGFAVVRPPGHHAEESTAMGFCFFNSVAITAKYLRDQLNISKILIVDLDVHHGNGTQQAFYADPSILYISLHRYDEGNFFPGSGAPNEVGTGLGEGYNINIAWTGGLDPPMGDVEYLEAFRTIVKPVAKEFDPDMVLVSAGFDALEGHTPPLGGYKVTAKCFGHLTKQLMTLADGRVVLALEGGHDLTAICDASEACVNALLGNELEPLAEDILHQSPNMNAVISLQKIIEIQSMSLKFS

| SMILES | inhibition at 1 µM [1] [%] | inhibition at 1 µM [2] [%] | inhibition at 1 µM [3] [%] |
| --- | --- | --- | --- |
| O=C1c2cc(-c3noc(C(F)(F)F)n3)ccc2CN1[C@H]1CCc2ccccc21 [Example 24, 2-((1S)-2,3-dihydro-1H-inden-1-yl)-6-(5-(trifluoromethyl)-1,2,4-oxadiazol-3-yl)isoindolin-1-one] | 95 | 52 | 6 |
| O=C1c2cc(-c3noc(C(F)(F)F)n3)ccc2CN1[C@@H]1CCc2ccccc21 [Example 25, 2-((1R)-2,3-dihydro-1H-inden-1-yl)-6-(5-(trifluoromethyl)-1,2,4-oxadiazol-3-yl)isoindolin-1-one] | 92 | 39 | 7 |
| CC(C)(C)OC(=O)N[C@@H]1CCCC[C@H]1N1Cc2ccc(-c3noc(C(F)(F)F)n3)cc2C1=O [Example 26, tert-butyl ((1R,2R)-2-(1-oxo-6-(5-(trifluoromethyl)-1,2,4-oxadiazol-3-yl)-1,3-dihydro-2H-isoindol-2-yl)cyclohexyl)carbamate] | 98 | 47 | 11 |
| CC(C)(C)OC(=O)N[C@H]1CCCC[C@@H]1N1Cc2ccc(-c3noc(C(F)(F)F)n3)cc2C1=O [Example 27, tert-butyl ((1S,2S)-2-(1-oxo-6-(5-(trifluoromethyl)-1,2,4-oxadiazol-3-yl)-1,3-dihydro-2H-isoindol-2-yl)cyclohexyl)carbamate] | 36 | 76 | 16 |
| N[C@@H]1CCCC[C@H]1N1Cc2ccc(-c3noc(C(F)(F)F)n3)cc2C1=O [Example 28, 2-((1R,2R)-2-aminocyclohexyl)-6-[5-(trifluoromethyl)-1,2,4-oxadiazol-3-yl)isoindolin-1-one] | 89 | 78 | 3 |
| N[C@H]1CCCC[C@@H]1N1Cc2ccc(-c3noc(C(F)(F)F)n3)cc2C1=O [Example 29, 2-((1S,2S)-2-aminocyclohexyl)-6-(5-(trifluoromethyl)-1,2,4-oxadiazol 3-yl)isoindolin-1-one] | 34 | 45 | -2 |
| CC(C)(C)OC(=O)N1CC[C@H](N2Cc3ccc(-c4noc(C(F)(F)F)n4)cc3C2=O)[C@@H](c2ccccc2)C1 [Example 30, tert-butyl (3S,4S)-4-(1-oxo-6-(5-(trifluoromethyl)-1,2,4-oxadiazol-3-yl)-1,3-dihydro-2H-isoindol-2-yl)-3-phenylpiperidine-1-carboxylate] | 97 | 84 | 30 |
| O=C1c2cc(-c3noc(C(F)(F)F)n3)ccc2CN1[C@H]1CCNC[C@@H]1c1ccccc1 [Example 31, 2-((3S,4S)-3-phenylpiperidin-4-yl)-6-(5-(trifluoromethyl)-1,2,4-oxadiazol-3-yl)isoindolin-1-one] | 99 | 97 | 78 |
| O=C(N[C@@H]1CCCC[C@H]1N1Cc2ccc(-c3noc(C(F)(F)F)n3)cc2C1=O)C1CC1 [Example 32, N-((1R,2R)-2-(1-oxo-6-(5-(trifluoromethyl)-1,2,4-oxadiazol-3-yl)-1,3-dihydro-2H-isoindol-2-yl)cyclohexyl)cyclopropanecarboxamide] | 99 | 52 | 5 |
| O=C(N[C@H]1CCCC[C@@H]1N1Cc2ccc(-c3noc(C(F)(F)F)n3)cc2C1=O)C1CC1 [Example 33, N-((1S,2S)-2-(1-oxo-6-(5-(trifluoromethyl)-1,2,4-oxadiazol-3-y)-1,3-dihydro-2H-isoindol-2-yl)cyclohexyl)cyclopropanecarboxamide] | 83 | 46 | 7 |
| CC1(C(=O)N[C@@H]2CCCC[C@H]2N2Cc3ccc(-c4noc(C(F)(F)F)n4)cc3C2=O)CC1 [Example 36, 1-methyl-N-((1R,2R)-2-(1-oxo-6-(5-(trifluoromethyl)-1,2,4-oxadiazol-3-yl)-1,3-dihydro-2H-isoindol-2-yl)cyclohexyl) cyclopropanecarboxamide] | 98 | 66 | 12 |
| O=C(N[C@@H]1CCCC[C@H]1N1Cc2ccc(-c3noc(C(F)(F)F)n3)cc2C1=O)C1CCOCC1 [Example 37, N-((1R,2R)-2-(1-oxo-6-(5-(trifluoromethyl)-1,2,4-oxadiazol-3-yl)-1,3-dihydro-2H-isoindol-2-yl)cyclohexyl)tetrahydro-2H-pyran-4-carboxamide] | 96 | 19 | 1 |
| CC(=O)N1CCC(N2Cc3ncc(-c4noc(C(F)(F)F)n4)cc3C2=O)CC1 [Example 38, 6-(1-acetylpiperidin-4-yl)-3-(5-(trifluoromethyl)-1,2,4-oxadiazol-3-yl)-6,7-dihydro-5H-pyrrolo[3,4-b]pyridin-5-one] | 90 | 82 | 25 |
| CC(=O)N1CCCC(N2Cc3ncc(-c4noc(C(F)(F)F)n4)cc3C2=O)C1 (stereo not drawn) [Example 39, 6-(1-acetylpiperidin-3-yl)-3-(5-(trifluoromethyl)-1,2,4-oxadiazol-3-yl)-6,7-dihydro-5H-pyrrolo[3,4-b]pyridin-5-one] | 91 | 86 | 23 |
| O=C(c1ccccc1)N1CCCC(N2Cc3ncc(-c4noc(C(F)(F)F)n4)cc3C2=O)C1 (stereo not drawn) [Example 40, 6-(1-benzoylpiperidin-3-yl)-3-(5-(trifluoromethyl)-1,2,4-oxadiazol-3-yl)-6,7-dihydro-5H-pyrrolo[3,4-b]pyridin-5-one] | 95 | 97 | 56 |
| O=C(Cc1ccc(F)cc1)N1CCCC(N2Cc3ncc(-c4noc(C(F)(F)F)n4)cc3C2=O)C1 (stereo not drawn) [Example 41, 6-(1-((4-fluorophenyl)acetyl)piperidin-3-yl)-3-(5-(trifluoromethyl)-1,2,4-oxadiazol-3-yl)-6,7-dihydro-5H-pyrrolo[3,4-b]pyridin-5-one] | 93 | 94 | 37 |
| CC1(C(=O)N[C@@H]2CCCC[C@H]2N2Cc3ccc(-c4noc(C(F)(F)F)n4)cc3C2=O)COC1 [Example 42, 3-methyl-N-((1R,2R)-2-(1-oxo-6-(5-(trifluoromethyl)-1,2,4-oxadiazol-3-yl)-1,3-dihydro-2H-isoindol-2-yl)cyclohexyl)oxetane-3-carboxamide] | 100 | 41 | 15 |
| NC(=O)N1CC[C@@H](N2Cc3ccc(-c4noc(C(F)(F)F)n4)cc3C2=O)[C@H](c2ccccc2)C1 [Example 43, (3R,4R)-4-(1-oxo-6-(5-(trifluoromethyl)-1,2,4-oxadiazol-3-yl)-1,3-dihydro-2H-isoindol-2-yl)-3-phenylpiperidine-1-carboxamide] | 99 | 96 | 90 |
| CCNC(=O)N1CC[C@@H](N2Cc3ccc(-c4noc(C(F)(F)F)n4)cc3C2=O)[C@H](c2ccccc2)C1 [Example 44, (3R,4R)-N-ethyl-4-(1-oxo-6-(5-(trifluoromethyl)-1,2,4-oxadiazol-3-yl)-1,3-dihydro-2H-isoindol-2-yl)-3-phenylpiperidine-1-carboxamide] | 98 | 95 | 88 |
